Earlier results, collected in patent US6258550A, “Polypeptides that include conformation-constraining groups which flank a protein-protein interaction site” (Virginia Commonwealth University, priority 1999, dated 2001).
Where a SMILES comes first, the peptide text is derived from it.

System: receptors of sweet tasting papillae
Conditions: comparison sweetener

Sweetness relative to sugar: 160 times sweeter than sugar
SMILES: COC(=O)[C@H](Cc1ccccc1)NC(=O)[C@@H](N)CC(=O)O [aspartame] (H-Asp-Phe-OMe)
